Assay [1] concerns the target T1, human Tyk2 (amino acids 575-869, His-tagged) (Homo sapiens, UniProt P29597).
T1 construct: made in house
Description: Probe displacement assay (SPA format). Format: binding. The note with it: radiolabeled probe 40 nM, Tyk2 2.5 nM. How it is done:
Probe Displacement Assay (SPA Format) The probe displacement assay is conducted as follows: In a […], test compounds along with recombinantly expressed His-tagged protein corresponding to amino acids 575-869 of human Tyk2 (sequence shown below) at 2.5 nM, 40 nM ((R)—N-(1-(3-(8-methyl-5-(methylamino)-8H-imidazo [4,5-d]thiazolo [5,4-b]pyridin-2-yl)phenyl)ethyl)-2-([^3H]methylsulfonyl)benzamide) (preparation described below) and 80 μg/mL Copper His-Tag scintillation proximity assay beads (Perkin Elmer, Catalog # RPNQ0095) in 50 mM HEPES, pH 7.5, containing 100 μg/mL bovine serum albumin and 5% DMSO were incubated for 30 minutes at room temperature. The amount of radiolabeled probe (preparation described below) bound to Tyk2 was then quantified by scintillation counting, and the inhibition by the test compound calculated by comparison to wells either with no inhibitor (0% inhibition) or without Tyk2 (100% inhibition). The EC50 value is defined as the concentration of test compound required to inhibit radiolabeled probe binding by 50%. Probe Displacement Assay (HTRF Format)

The test system of assay [2] is IFNα stimulated Kit225 T cells (STAT-dependent luciferase reporter). Description: Kit225 T cell assay, IFNα stimulated STAT-dependent luciferase reporter. It is filed as cell-based. The following applies: 200 U/mL human recombinant IFNα, 5-6 hours. Here is the method: (§1) Kit225 T cells with a stably-integrated STAT-dependent luciferase reporter were plated in RPMI (Gibco) containing 10% heat-inactivated FBS (Gibco) and 100 U/mL PenStrep (Gibco). The cells were then stimulated with either 20 ng/mL human recombinant IL-23 or 200 U/mL human recombinant IFNα (PBL InterferonSource) for 5-6 hours. Luciferase expression was measured using the STEADY-GLO® Luciferase Assay System (Promega) according to the manufacturer's instructions. Inhibition data were calculated by comparison to no inhibitor control wells for 0% inhibition and non-stimulated control wells for 100% inhibition. Dose response curves were generated to determine the concentration required to inhibit 50% of cellular response (IC50) as derived by non-linear regression analysis.
(Reporter assays use an easily measured gene product as a stand-in for the process of interest.)

The subject of assay [3] is IL-23 stimulated Kit225 T cells (STAT-dependent luciferase reporter). Description: Kit225 T cell assay, IL-23 stimulated STAT-dependent luciferase reporter. It is filed as cell-based. The note with it: 20 ng/mL human recombinant IL-23, 5-6 hours. Here is the method:
as §1

EC50 and IC50 data for 23 compounds are collected here from US10781215B2, “Heterobicyclic compounds useful as modulators of IL-12, IL-23 and/or IFNα responses” (BRISTOL-MYERS SQUIBB COMPANY, priority 2016, dated 2020).

T1 sequence (P29597 with tags, fused parts or gaps): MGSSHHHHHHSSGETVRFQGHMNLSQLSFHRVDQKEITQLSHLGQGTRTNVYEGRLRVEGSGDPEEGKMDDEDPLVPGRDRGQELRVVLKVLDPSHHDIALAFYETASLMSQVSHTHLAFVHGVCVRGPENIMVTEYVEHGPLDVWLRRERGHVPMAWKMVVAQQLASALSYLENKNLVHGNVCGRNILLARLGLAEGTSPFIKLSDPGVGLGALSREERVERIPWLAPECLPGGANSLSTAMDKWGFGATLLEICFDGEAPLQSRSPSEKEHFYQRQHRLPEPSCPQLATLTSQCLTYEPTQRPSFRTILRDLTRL

A word on the EC50: it is the concentration at which the effect is half-maximal. Broadly, the IC50 is the concentration needed to halve the response being measured. Take `COc1c(Nc2cc(Nc3ccc(F)cn3)nc3[nH]c(C)nc23)cccc1-c1ncn(C)n1` [Example 40, 5-N-(5-fluoropyridin-2-yl)-7-N-[2-methoxy-3-(1-methyl-1H-1,2,4-triazol-3-yl)phenyl]-2-methyl-3H-imidazo[4,5-b]pyridine-5,7-diamine]: a half-maximal response in assay [1] (EC50) required 38 nM. Moreover, the figures for the IC50 in assay [2] and in assay [3] were 1240 nM and 738 nM, respectively.
As for `COc1ccccc1Nc1cc(Nc2cc(C)nc(C)n2)nc2[nH]c(C)nc12` [Example 36, 5-N-(2,6-dimethylpyrimidin-4-yl)-7-N-(2-methoxyphenyl)-2-methyl-3H-imidazo[4,5-b]pyridine-5,7-diamine], a half-maximal effect in assay [1] (EC50) was put at 291 nM. Moreover, the values for the IC50 in assay [2] and in assay [3] were 1520 nM and 824 nM, respectively.
For the compound `Cc1nc2c(Nc3ccccc3S(C)(=O)=O)cc(Nc3ccn(C)n3)nc2[nH]1` [Example 22, 7-N-(2-methanesulfonylphenyl)-2-methyl-5-N-(1-methyl-1H-pyrazol-3-yl)-3H-imidazo[4,5-b]pyridine-5,7-diamine], the IC50 in assay [2] is 264 nM; in assay [3] it was 370 nM.
`COc1cnc(Nc2cc(Nc3ccccc3S(C)(=O)=O)c3nc(C)[nH]c3n2)cn1` [Example 6, 7-N-(2-methanesulfonylphenyl)-5-N-(5-methoxypyrazin-2-yl)-2-methyl-3H-imidazo[4,5-b]pyridine-5,7-diamine]: the midpoint of the response in assay [1], the EC50, lay at 37 nM. Moreover, the IC50 in assay [2] came out at 371 nM; in assay [3], 447 nM.
The matching figures for `Cc1nc2c(Nc3ccccc3S(C)(=O)=O)cc(Nc3ccc(C(F)(F)F)cn3)nc2[nH]1` [Example 10, 7-N-(2-methanesulfonylphenyl)-2-methyl-5-N-[5-(trifluoromethyl)pyridin-2-yl]-3H-imidazo[4,5-b]pyridine-5,7-diamine]: 13 nM, 190 nM and 143 nM.
The matching figures for `Cc1nc2c(Nc3ccccc3S(C)(=O)=O)nc(Nc3ccc(F)cc3)nc2[nH]1` [Example 1, N2-(4-fluorophenyl)-8-methyl-N6-(2-(methylsulfonyl)phenyl)-9H-purine-2,6-diamine]: 270 nM, 4260 nM and 1410 nM.
In turn, `Cc1nc2c(Nc3ccccc3S(C)(=O)=O)cc(Nc3cc(F)ccn3)nc2[nH]1` [Example 17, 5-N-(4-fluoropyridin-2-yl)-7-N-(2-methanesulfonylphenyl)-2-methyl-3H-imidazo[4,5-b]pyridine-5,7-diamine] had an EC50 in assay [1] of 15 nM. For the same compound, the values for the IC50 in assay [2] and in assay [3] were 128 nM and 104 nM, respectively.
With `CCc1nc2c(Nc3ccccc3S(C)(=O)=O)cc(Nc3ccc(F)cn3)nc2[nH]1` [Example 51, 2-ethyl-5-N-(5-fluoropyridin-2-yl)-7-N-(2-methanesulfonylphenyl)-3H-imidazo[4,5-b]pyridine-5,7-diamine], in assay [1], the response was half-maximal at 158 nM (EC50). In addition, the figures for the IC50 in assay [2] and in assay [3] were 1420 nM and 1470 nM, respectively.
`Cc1nc2c(Nc3ccccc3C(N)=O)cc(Nc3ccc(N4CCOCC4)cn3)nc2[nH]1` [Example 34, 2-[(2-methyl-5-{[5-(morpholin-4-yl)pyridin-2-yl]amino}-3H-imidazo[4,5-b]pyridin-7-yl)amino]benzamide]: the IC50 in assay [2] turned out to be 5120 nM; in assay [3], 4380 nM.
Regarding `Cc1nc2c(Nc3ccccc3S(C)(=O)=O)cc(Nc3cc(C)c(F)cn3)nc2[nH]1` [Example 31, 5-N-(5-fluoro-4-methylpyridin-2-yl)-7-N-(2-methanesulfonylphenyl)-2-methyl-3H-imidazo[4,5-b]pyridine-5,7-diamine], the EC50 in assay [1] is 12 nM. The results for the IC50 in assay [2] and in assay [3] were 105 nM and 235 nM, respectively.
The like results for `Cc1nc2c(Nc3ccccc3S(C)(=O)=O)cc(Nc3cccc(C(F)(F)F)n3)nc2[nH]1` [Example 23, 7-N-(2-methanesulfonylphenyl)-2-methyl-5-N-[6-(trifluoromethyl)pyridin-2-yl]-3H-imidazo[4,5-b]pyridine-5,7-diamine] were, in that order, 5 nM, 44 nM and 81 nM.
The like results for `COc1ccccc1Nc1cc(NC(=O)C2CC2)nc2[nH]c(C)nc12` [Example 35, N-{7-[(2-methoxyphenyl)amino]-2-methyl-3H-imidazo[4,5-b]pyridin-5-yl}cyclopropanecarboxamide] were, in that order, 814 nM, 5130 nM and 3140 nM.
`Cc1nc2c(Nc3ccccc3S(C)(=O)=O)cc(Nc3cnc(C(F)(F)F)cn3)nc2[nH]1` [Example 12, 7-N-(2-methanesulfonylphenyl)-2-methyl-5-N-[5-(trifluoromethyl)pyrazin-2-yl]-3H-imidazo[4,5-b]pyridine-5,7-diamine]: the 50% effective concentration (EC50) in assay [1] stood at 30 nM. Besides, the IC50 stood at 818 nM in assay [2] and 357 nM in assay [3].
The like results for `COc1ccccc1Nc1cc(Nc2ccc(N3CCOCC3)cn2)nc2[nH]c(C)nc12` [Example 37, 7-N-(2-methoxyphenyl)-2-methyl-5-N-[5-(morpholin-4-yl)pyridin-2-yl]-3H-imidazo[4,5-b]pyridine-5,7-diamine] were, in that order, 432 nM, 1040 nM and 3880 nM.
The like results for `Cc1nc2c(Nc3ccccc3S(C)(=O)=O)cc(Nc3ccc(C#N)cn3)nc2[nH]1` [Example 13, 6-({7-[(2-methanesulfonylphenyl)amino]-2-methyl-3H-imidazo[4,5-b]pyridin-5-yl}amino)pyridine-3-carbonitrile] were, in that order, 9 nM, 190 nM and 185 nM.
For `Cc1nc2c(Nc3ccccc3S(C)(=O)=O)cc(Nc3ccc(C(=O)N4CCOCC4)cn3)nc2[nH]1` [Example 8, 7-N-(2-methanesulfonylphenyl)-2-methyl-5-N-[5-(morpholine-4-carbonyl)pyridin-2-yl]-3H-imidazo[4,5-b]pyridine-5,7-diamine], the EC50 in assay [1] was 21 nM. Moreover, the IC50 in assay [2] stood at 1470 nM; in assay [3] it was 1950 nM.
Turning to `COc1ccc(Nc2cc(Nc3ccccc3S(C)(=O)=O)c3nc(C)[nH]c3n2)nc1` [Example 16, 7-N-(2-methanesulfonylphenyl)-5-N-(5-methoxypyridin-2-yl)-2-methyl-3H-imidazo[4,5-b]pyridine-5,7-diamine], it took 14 nM to reach a half-maximal effect in assay [1] (EC50). For the same compound, the figures for the IC50 in assay [2] and in assay [3] were 128 nM and 90 nM, respectively.
The like results for `Cc1ccc(Nc2cc(Nc3ccccc3S(C)(=O)=O)c3nc(C)[nH]c3n2)nc1` [Example 21, 7-N-(2-methanesulfonylphenyl)-2-methyl-5-N-(5-methylpyridin-2-yl)-3H-imidazo[4,5-b]pyridine-5,7-diamine] were, in that order, 27 nM, 201 nM and 261 nM.
`Cc1nc2c(Nc3ccccc3S(C)(=O)=O)cc(Nc3ccn4nccc4n3)nc2[nH]1` [Example 27, 7-N-(2-methanesulfonylphenyl)-2-methyl-5-N-{pyrazolo[1,5-a]pyrimidin-5-yl}-3H-imidazo[4,5-b]pyridine-5,7-diamine] returned an EC50 in assay [1] of 4 nM. In addition, the IC50 in assay [2] came to 123 nM; in assay [3] it was 327 nM.
The compound `Cc1nc2c(Nc3ccccc3S(C)(=O)=O)cc(Nc3ccc(N4CCC(C)(O)CC4)cn3)nc2[nH]1` [Example 9, 1-[6-({7-[(2-methanesulfonylphenyl)amino]-2-methyl-3H-imidazo[4,5-b]pyridin-5-yl}amino)pyridin-3-yl]-4-methylpiperidin-4-ol] returned an EC50 in assay [1] of 17 nM. Besides, the half-maximal inhibitory concentration (IC50) in assay [2] was 564 nM; in assay [3], 854 nM.
For the compound `Cc1ccc(Nc2cc(Nc3ccccc3S(C)(=O)=O)c3nc(C)[nH]c3n2)nn1` [Example 11, 7-N-(2-methanesulfonylphenyl)-2-methyl-5-N-(6-methylpyridazin-3-yl)-3H-imidazo[4,5-b]pyridine-5,7-diamine], the response in assay [1] was half-maximal at 10 nM (EC50). The IC50 in assay [2] is 463 nM; in assay [3] it was 875 nM.
The like results for `Cc1nc2c(Nc3ccccc3S(C)(=O)=O)cc(Nc3ccn(C(C)C)n3)nc2[nH]1` [Example 30, 7-N-(2-methanesulfonylphenyl)-2-methyl-5-N-[1-(propan-2-yl)-1H-pyrazol-3-yl]-3H-imidazo[4,5-b]pyridine-5,7-diamine] were, in that order, 58 nM, 503 nM and 579 nM.
As to `Cc1cc(Nc2cc(Nc3ccccc3C(N)=O)c3nc(C)[nH]c3n2)nc(C)n1` [Example 33, 2-({5-[(2,6-dimethylpyrimidin-4-yl)amino]-2-methyl-3H-imidazo[4,5-b]pyridin-7-yl}amino)benzamide], the IC50 in assay [2] turned out to be 1220 nM; in assay [3], 1960 nM.
